Reference: paper PMC5404925, “Variation in olfactory neuron repertoires is genetically controlled and environmentally modulated” (eLife, 2017)

What was measured:
[1] = target: T1, Olfr538 (Mus musculus, UniProt Q7TRT5); test: CRE-luciferase reporter dose-response (Dual-Glo); type: cell-based; details: agonist; 1 nM to 1 mM, 4 h stimulation; RTP1S and M3-R co-expressed; Hana3A cells
T1 construct: gene Or13a24; full-length OR, probably N-terminal RHO tag (tag-only control), in HEK293T-derived Hana3A cells with RTP1S and M3-R
T1 sequence (Q7TRT5 1-310): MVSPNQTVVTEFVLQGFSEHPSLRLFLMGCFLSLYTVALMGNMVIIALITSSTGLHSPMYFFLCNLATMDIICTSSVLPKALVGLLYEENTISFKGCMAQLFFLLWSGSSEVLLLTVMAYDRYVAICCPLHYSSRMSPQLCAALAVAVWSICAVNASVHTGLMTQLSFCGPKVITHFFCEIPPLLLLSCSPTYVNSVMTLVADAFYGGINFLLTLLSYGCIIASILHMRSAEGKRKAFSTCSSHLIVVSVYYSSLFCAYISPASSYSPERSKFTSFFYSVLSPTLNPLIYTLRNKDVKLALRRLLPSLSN

[2] = target: T2, Olfr347 (Mus musculus, UniProt Q8VGK2); test: CRE-luciferase reporter dose-response (Dual-Glo); type: cell-based; details: agonist; 1 nM to 1 mM, 4 h stimulation; RTP1S and M3-R co-expressed; Hana3A cells
T2 construct: gene Or1j18; full-length OR, probably N-terminal RHO tag (tag-only control), in HEK293T-derived Hana3A cells with RTP1S and M3-R
T2 sequence (Q8VGK2 1-312): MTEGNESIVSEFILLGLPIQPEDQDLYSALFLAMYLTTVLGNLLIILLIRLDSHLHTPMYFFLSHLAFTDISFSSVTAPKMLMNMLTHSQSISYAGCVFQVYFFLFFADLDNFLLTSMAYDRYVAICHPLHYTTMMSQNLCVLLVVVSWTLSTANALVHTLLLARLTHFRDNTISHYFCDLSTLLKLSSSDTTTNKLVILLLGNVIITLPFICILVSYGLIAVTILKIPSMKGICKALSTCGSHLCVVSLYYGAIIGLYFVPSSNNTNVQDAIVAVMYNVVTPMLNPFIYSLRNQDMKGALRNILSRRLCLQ

**Q.** Which results are given for C=C(C)[C@@H]1CC=C(C)C(=O)C1 [(R)-carvone]?
**A.** CRE-luciferase reporter dose-response (Dual-Glo) [1]: Olfr538 displayed a dose-dependent response to (R)-carvone; CRE-luciferase reporter dose-response (Dual-Glo) [2]: Dose-response curve for HEK293 cells expressing Olfr347 (black) challenged with increasing concentrations of (R)-carvone
